In US10189840B2, “Substituted tricyclic heterocyclic compounds” (BRISTOL-MYERS SQUIBB COMPANY, priority 2015, dated 2019) one finds IC50 data, which are given here for 24 compounds.

For this experiment, the target named is TNFα (Homo sapiens (Human), UniProt P01375). Briefly: TNF induced HEK-Blue assay. The class given is cell-based. To be noted: TNFα 0.5 ng/ml; HEK-Blue-CD40L cells, NF-κB-driven secreted alkaline phosphatase reporter; 18 h. The procedure:
Test compounds serially diluted in DMSO were plated in an assay plate (Labcyte, Cat. #LP-0200) at final concentrations ranging from 0.004 μM to 25 μM. TNFα (final concentration 0.5 ng/ml) or CD40L (final concentration 30 ng/ml) in assay buffer [DMEM, 4.5 g/l glucose (Gibco, Cat. 21063-029), 10% FBS (Sigma, F4135), 1% Penicillin-Streptomycin (Gibco, Cat. 15140-122), 1% Anti-Anti (Gibco, Cat. 15240-112) and 2 mM L-glutamine (Gibco, Cat. 25030-081)] was then added to the assay plate. After a 30 minute pre-incubation at 37° C. and 5% CO2, HEK-Blue-CD40L cells (InvivoGen, Cat. Code hkb-cd40) containing a NF-κB-driven secreted alkaline phosphatase reporter gene were seeded into the assay plate at a density of 20,000 cells per well. This plate was then incubated for 18 h at 37° C. and 5% CO2. Secreted alkaline phosphatase expression was measured using QUANTI-Blue (InvivoGen, Cat. Code rep-qb1) according to manufacturer's specifications and the assay plate was read on a PerkinElmer Envision at 620 nm.
Inhibition data for the test compound over a range of concentrations was plotted as percentage inhibition of the test compound (100%=maximum inhibition). IC50 values were determined after correcting for background [(sample read−mean of low control)/(mean of high control−mean of low control)] where by the low control is DMSO without stimulation and high control is DMSO with stimulation. The IC50 is defined as the concentration of test compound which produces 50% inhibition and was quantified using the 4 parameter logistic equation to fit the data.
Table 5 lists the IC50 values measured in the TNF induced HEK-Blue assay for Examples 1 to 40 of this invention.

Chain of TNFα (P01375 77-233): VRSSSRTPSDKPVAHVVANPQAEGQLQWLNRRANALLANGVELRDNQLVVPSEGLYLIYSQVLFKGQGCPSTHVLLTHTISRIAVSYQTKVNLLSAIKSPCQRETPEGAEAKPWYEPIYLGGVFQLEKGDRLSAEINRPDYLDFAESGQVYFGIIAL

As for `CC(C)(O)c1ccc(-c2ccc3nc4n(c3n2)C(c2cc(F)ccc2C(F)(F)F)CC4)cc1` (single isomer, unassigned) [Example 34 (e1), 2-(4-(8-(5-fluoro-2-(trifluoromethyl)phenyl)-7,8-dihydro-6H-pyrrolo[2′,1′:2,3]imidazo[4,5-b]pyridin-2-yl)phenyl)propan-2-ol], the half-maximal inhibitory concentration (IC50) (usually the midpoint of a concentration-inhibition curve) was less than 1 µM. Compound `CC(C)(O)c1ccc(-c2ccc3nc4n(c3n2)C(c2ccccc2C(F)(F)F)CC4O)cc1` (single isomer, unassigned) [Example 1 (e4), 2-(4-(2-Hydroxypropan-2-yl)phenyl)-8-(2-(trifluoromethyl)phenyl)-7,8-dihydro-6H-pyrrolo[2′,1′:2,3]imidazo[4,5-b]pyridin-6-ol] showed an IC50 of 1 to 10 µM. As for `CC(C)(O)c1ccc(-c2ccc3nc4n(c3n2)C(c2ccccc2OC(F)F)CC4F)cc1` (single isomer, unassigned) [Example 15 (e2), 2-(4-(8-(2-(difluoromethoxy)phenyl)-6-fluoro-7,8-dihydro-6H-pyrrolo[2′,1′:2,3]imidazo[4,5-b]pyridin-2-yl)phenyl)propan-2-ol], the figure is 10 to 25 µM; as for `CC(C)(O)c1ccc(-c2ccc3nc4n(c3n2)C(c2c(F)cccc2C(F)(F)F)CC4F)cc1` (single isomer, unassigned) [Example 23 (e2), 2-(4-(6-fluoro-8-(2-fluoro-6-(trifluoromethyl)phenyl)-7,8-dihydro-6H-pyrrolo[2′,1′:2,3]imidazo[4,5-b]pyridin-2-yl)phenyl)propan-2-ol], 1 to 10 µM; as for `CC(C)(O)c1ccc(-c2ccc3nc4n(c3n2)C(c2cc(F)ccc2C(F)(F)F)CC4F)cc1` (stereo not drawn) [Example 24 (e3), 2-(4-(6-fluoro-8-(5-fluoro-2-(trifluoromethyl)phenyl)-7,8-dihydro-6H-yrrolo[2′,1′:2,3]imidazo[4,5-b]pyridin-2-yl)phenyl)propan-2-ol], 1 to 10 µM.

Take `CC(C)(O)c1ccc(-c2ccc3nc4n(c3n2)C(c2cc(F)ccc2C(F)(F)F)CC4)cc1` (racemic) [Example 34 (rac), 2-(4-(8-(5-fluoro-2-(trifluoromethyl)phenyl)-7,8-dihydro-6H-pyrrolo[2′,1′:2,3]imidazo[4,5-b]pyridin-2-yl)phenyl)propan-2-ol]: the IC50 is less than 1 µM.

In turn, `CC(C)(O)c1ccc(-c2ccc3nc4n(c3n2)C(c2ccccc2C(F)(F)F)CC4O)cc1` (single isomer, unassigned) [Example 1 (e3), 2-(4-(2-Hydroxypropan-2-yl)phenyl)-8-(2-(trifluoromethyl)phenyl)-7,8-dihydro-6H-pyrrolo[2′,1′:2,3]imidazo[4,5-b]pyridin-6-ol] came in with an IC50 of 1 to 10 µM.

As for `CC(C)(O)c1ccc(-c2ccc3nc4n(c3n2)C(c2ccccc2OC(F)F)CC4O)cc1` (single isomer, unassigned) [Example 2 (e1), 8-(2-(difluoromethoxy)phenyl)-2-(4-(2-hydroxypropan-2-yl)phenyl)-7,8-dihydro-6H-pyrrolo[2′,1′:2,3]imidazo[4,5-b]pyridin-6-ol], the IC50 was less than 1 µM.

Regarding `CC(C)(O)c1ccc(-c2ccc3nc4n(c3n2)C(c2ccccc2OC(F)(F)F)CC4F)cc1` (single isomer, unassigned) [Example 22 (e2), 2-(4-(6-fluoro-8-(2-(trifluoromethoxy)phenyl)-7,8-dihydro-6H-pyrrolo[2′,1′:2,3]imidazo[4,5-b]pyridin-2-yl)phenyl)propan-2-ol], the concentration for half-maximal inhibition (IC50) lay within 1 to 10 µM.

In turn, `CC(C)(O)c1ccc(-c2ccc3nc4n(c3n2)C(c2c(F)cccc2C(F)(F)F)CC4O)cc1` (stereo not drawn) [Example 3 (e4), 8-(2-fluoro-6-(trifluoromethyl)phenyl)-2-(4-(2-hydroxypropan-2-yl)phenyl)-7,8-dihydro-6H-pyrrolo[2′,1′:2,3]imidazo[4,5-b]pyridin-6-ol] had an IC50 of 1 to 10 µM. In turn, `CC(C)(O)c1ccc(-c2ccc3nc4n(c3n2)C(c2cc(F)ccc2C(F)(F)F)CC4F)cc1` (stereo not drawn) [Example 24 (DM), 2-(4-(6-fluoro-8-(5-fluoro-2-(trifluoromethyl)phenyl)-7,8-dihydro-6H-yrrolo[2′,1′:2,3]imidazo[4,5-b]pyridin-2-yl)phenyl)propan-2-ol] came in with an IC50 of less than 1 µM. With `CC(C)(O)c1ccc(-c2ccc3nc4n(c3n2)C(c2ccccc2OC(F)F)CC4O)cc1` (single isomer, unassigned) [Example 2 (e4), 8-(2-(difluoromethoxy)phenyl)-2-(4-(2-hydroxypropan-2-yl)phenyl)-7,8-dihydro-6H-pyrrolo[2′,1′:2,3]imidazo[4,5-b]pyridin-6-ol], the concentration for half-maximal inhibition (IC50) was in the range of 1 to 10 µM. `CC(C)(O)c1ccc(-c2ccc3nc4n(c3n2)C(c2c(F)cccc2C(F)(F)F)CC4O)cc1` (single isomer, unassigned) [Example 3 (e2), 8-(2-fluoro-6-(trifluoromethyl)phenyl)-2-(4-(2-hydroxypropan-2-yl)phenyl)-7,8-dihydro-6H-pyrrolo[2′,1′:2,3]imidazo[4,5-b]pyridin-6-ol] came in with a concentration for half-maximal inhibition (IC50) of less than 1 µM.

Compound `CC(C)(O)c1ccc(-c2ccc3nc4n(c3n2)C(c2ccccc2C(F)(F)F)CC4)cc1` (single isomer, unassigned) [Example 25 (e2), 2-(4-(8-(2-(Trifluoromethyl)phenyl)-7,8-dihydro-6H-pyrrolo[2′,1′:2,3]imidazo[4,5-b]pyridin-2-yl)phenyl)propan-2-ol] gave a concentration for half-maximal inhibition (IC50) of less than 1 µM. As for `CC(C)(O)c1ccc(-c2ccc3nc4n(c3n2)C(c2cc(F)ccc2C(F)(F)F)CC4O)cc1` (single isomer, unassigned) [Example 13 (e2), 8-(5-fluoro-2-(trifluoromethyl)phenyl)-2-(4-(2-hydroxypropan-2-yl)phenyl)-7,8-dihydro-6H-pyrrolo[2′,1′:2,3]imidazo[4,5-b]pyridin-6-ol], the figure is 1 to 10 µM; as for `OC1CC(c2ccccc2OC(F)F)n2c1nc1ccc(-c3cnc(N4CCOCC4)nc3)nc12` (stereo not drawn) [Example 10 (DM), 8-(2-(difluoromethoxy)phenyl)-2-(2-morpholinopyrimidin-5-yl)-7,8-dihydro-6H-pyrrolo[2′,1′:2,3]imidazo[4,5-b]pyridin-6-ol], less than 1 µM. Take `CC(C)(O)c1ccc(-c2ccc3nc4n(c3n2)C(c2cc(F)ccc2C(F)(F)F)CC4F)cc1` (stereo not drawn) [Example 24 (e4), 2-(4-(6-fluoro-8-(5-fluoro-2-(trifluoromethyl)phenyl)-7,8-dihydro-6H-yrrolo[2′,1′:2,3]imidazo[4,5-b]pyridin-2-yl)phenyl)propan-2-ol]: the IC50 was less than 1 µM. `COc1ccc(-c2ccc3nc4n(c3n2)C(c2ccccc2OC(F)F)CC4)cn1` (racemic) [Example 29 (rac), 8-(2-(difluoromethoxy)phenyl)-2-(6-methoxypyridin-3-yl)-7,8-dihydro-6H-pyrrolo[2′,1′:2,3]imidazo[4,5-b]pyridine] had a half-inhibitory concentration (IC50) of 1 to 10 µM. For `CC(C)(O)c1ccc(-c2ccc3nc4n(c3n2)C(c2ccccc2C(F)(F)F)CC4)cc1` (single isomer, unassigned) [Example 25 (e1), 2-(4-(8-(2-(Trifluoromethyl)phenyl)-7,8-dihydro-6H-pyrrolo[2′,1′:2,3]imidazo[4,5-b]pyridin-2-yl)phenyl)propan-2-ol], the IC50 is less than 1 µM. The same measure for `CC(C)(O)c1ccc(-c2ccc3nc4n(c3n2)C(c2ccccc2C2CC2)CC4)cc1` (single isomer, unassigned) [Example 33 (e2), 2-(4-(8-(2-cyclopropylphenyl)-7,8-dihydro-6H-pyrrolo[2′,1′:2,3]imidazo[4,5-b]pyridin-2-yl)phenyl)propan-2-ol]: 1 to 10 µM. The same measure for `CC(C)(O)c1ccc(-c2ccc3nc4n(c3n2)C(c2ccccc2C(F)(F)F)CC4O)cc1` (single isomer, unassigned) [Example 1 (e2), 2-(4-(2-Hydroxypropan-2-yl)phenyl)-8-(2-(trifluoromethyl)phenyl)-7,8-dihydro-6H-pyrrolo[2′,1′:2,3]imidazo[4,5-b]pyridin-6-ol]: 1 to 10 µM.

As for `CC(C)(O)c1ccc(-c2ccc3nc4n(c3n2)C(c2ccccc2C2CC2)CC4F)cc1` (single isomer, unassigned) [Example 21 (e4), 2-(4-(8-(2-cyclopropylphenyl)-6-fluoro-7,8-dihydro-6H-pyrrolo[2′,1′:2,3]imidazo[4,5-b]pyridin-2-yl)phenyl)propan-2-ol], the IC50 was less than 1 µM. The same measure for `CC(C)(O)c1ccc(-c2ccc3nc4n(c3n2)C(c2cc(F)ccc2C(F)(F)F)CC4F)cc1` (single isomer, unassigned) [Example 24 (e2), 2-(4-(6-fluoro-8-(5-fluoro-2-(trifluoromethyl)phenyl)-7,8-dihydro-6H-yrrolo[2′,1′:2,3]imidazo[4,5-b]pyridin-2-yl)phenyl)propan-2-ol]: 1 to 10 µM; for `CC(C)(O)c1ccc(-c2ccc3nc4n(c3n2)C(c2ccccc2C(F)(F)F)CC4O)cc1` (single isomer, unassigned) [Example 1 (e1), 2-(4-(2-Hydroxypropan-2-yl)phenyl)-8-(2-(trifluoromethyl)phenyl)-7,8-dihydro-6H-pyrrolo[2′,1′:2,3]imidazo[4,5-b]pyridin-6-ol]: less than 1 µM.
